Measured values reported in patent US11970474B2, “Substituted benzodiazoles and use thereof in therapy” (THOMAS HELLEDAYS STIFTELSE FÖR MEDICINSK FORSKNING, priority 2018, dated 2024).

Assays:
Experiment in all cases: Cell viability assay (resazurin)
Assay type in all cases: cell-based
[1] = system: PL-21; details: 120 h, Cancer, acute myeloid leukemia, five day incubation
Protocol: (§1) A dilution series of compound or vehicle are transferred to 96-well plates. Cells are seeded into the plate (500-10,000 cells/well) in suitable media and incubated for five days in 5% CO2 at 37° C. Thereafter, resazurin (diluted in suitable medium or PBS) are added to a final concentration 10 μg/ml resazurin at 37° C. for 2-4 hours before measuring the fluorescence (Ex544/Em590), essentially as described (Riss, Terry L. et al., “Cell Viability Assays.” In Assay Guidance Manual, ed. G. Sitta Sittampalam, et al. Bethesda (Md.): Eli Lilly & Company and the National Center for Advancing Translational Sciences (2004) http://www.ncbi.nlm.nih.gov/books/NBK144065/).
(§2) The compounds to be tested are nano-dispensed in duplicate in 11 concentrations, directly in 384-well cell plates, with a final DMSO concentration<1%. Cells are seeded in cell plates, pre-dispensed with compounds (200-2500 cells/well in 50 μl). After three or five days culture in 5% CO2, 37° C., resazurin diluted in PBS is added, 10 μl/well, to a final concentration of 10 μg/ml and cells are incubated 2-4 hours before measuring fluorescence (Ex544/Em590), as described (ibid.). Results obtained for selected example compounds described herein on cancer- and non-transformed cell lines are provided in the table below (Table 3) and summarized in FIG. 1. Where indicated, combination indexes was measured with CompuSyn software (www.compusyn.com) by the method of Chou-Talalay (Chou, Ting-Chao., Cancer Research, 70(2), 440-46 (2010)).

[2] = system: MRC5; details: Homo sapiens, 120 h, Normal, fetal lung fibroblast, five day incubation
Protocol: as §1, §2

[3] = system: Rec1; details: Homo sapiens, 120 h, Cancer, Mantle Cell Lymphoma, five day incubation
Protocol: as §1, §2

[4] = system: UO31; details: Homo sapiens, UO-31, 120 h, Cancer, Renal carcinoma, five day incubation
Protocol: as §1, §2

[5] = system: A498; details: Homo sapiens, 120 h, Cancer, Renal carcinoma, five day incubation
Protocol: as §1, §2

[6] = system: A549; details: Homo sapiens, 120 h, Cancer, Lung carcinoma, five day incubation
Protocol: as §1, §2

[7] = system: BJ Ras; details: 120 h, Cancer, Transformed fibroblast, five day incubation
Protocol: as §1, §2

[8] = system: H460; details: Homo sapiens, NCI-H460, 120 h, Cancer, large cell lung carcinoma, five day incubation
Protocol: as §1, §2

[9] = system: U2OS; details: Homo sapiens, 120 h, Cancer, Osteosarcoma, five day incubation
Protocol: as §1, §2

[10] = system: MOLT4; details: Homo sapiens, MOLT-4, 120 h, Cancer, Acute Lymphoblastic Leukemia, five day incubation
Protocol: as §1, §2

[11] = system: T98G; details: Homo sapiens, 120 h, Cancer, Glioblastoma Multiforme, five day incubation
Protocol: as §1, §2

[12] = system: M059J; details: Homo sapiens, 120 h, Cancer, Malignant Glioblastoma, five day incubation
Protocol: as §1, §2

[13] = system: SaOS2; details: Homo sapiens, SAOS-2, 120 h, Cancer, Osteosarcoma, five day incubation
Protocol: as §1, §2

[14] = system: VH10; details: 120 h, Normal, fibroblast, five day incubation
Protocol: as §1, §2

[15] = system: Raji; details: Homo sapiens, 120 h, Cancer, Burkitt's Lymphoma, five day incubation
Protocol: as §1, §2

[16] = system: M059K; details: 120 h, Cancer, Malignant Glioblastoma, five day incubation
Protocol: as §1, §2

[17] = system: HCT116 + Chr3; details: Homo sapiens, HCT-116, 120 h, Cancer, Colorectal Carcinoma, five day incubation
Protocol: as §1, §2

[18] = system: HeLa; details: Homo sapiens, 120 h, Cancer, Cervical adenocarcinoma, five day incubation
Protocol: as §1, §2

[19] = system: LCL#1; details: 120 h, Normal, Epstein-Barr-virus-transformed lymphoblastoid cell lines, five day incubation
Protocol: as §1, §2

[20] = system: KG1a; details: Homo sapiens, KG-1a, 120 h, Cancer, Acute Myelogenous Leukemia, five day incubation
Protocol: as §1, §2

[21] = system: CCD841; details: CCD-841, 120 h, Normal, fetal epithelial colon, five day incubation
Protocol: as §1, §2

[22] = system: HCT116; details: Homo sapiens, HCT-116, 120 h, Cancer, Colorectal Carcinoma, five day incubation
Protocol: as §1, §2

[23] = system: ACHN; details: Homo sapiens, 120 h, Cancer, Renal Cell Adenocarcinoma, five day incubation
Protocol: as §1, §2

EC50 [6] [µM]	EC50 [8] [µM]	EC50 [9] [µM]	EC50 [10] [µM]	EC50 [15] [µM]	EC50 [17] [µM]	EC50 [18] [µM]	SMILES	EC50 [1] [µM]	EC50 [2] [µM]	EC50 [3] [µM]	EC50 [4] [µM]	EC50 [5] [µM]	EC50 [7] [µM]	EC50 [11] [µM]	EC50 [12] [µM]	EC50 [13] [µM]	EC50 [14] [µM]	EC50 [16] [µM]	EC50 [19] [µM]	EC50 [20] [µM]	further results
11	14	16	13	20	17	16	O=C(Nc1ccc(Cl)c(Cl)c1)N1CCC(n2c(=O)[nH]c3c(-c4ccc(CO)nc4)cccc32)CC1 [Example 28, N-(3,4-dichlorophenyl)-4-{4-[6-(hydroxymethyl)pyridin-3-yl]-2-oxo-2,3-dihydro-1H-1,3-benzodiazol-1-yl}piperidine-1-carboxamide]	10	21	13	7.1	21	15	19	21	16	21	19	34	18	EC50 [21]: 40 µM; EC50 [22]: 15 µM; EC50 [23]: 8.5 µM
8.5	17	25	17	23	20	35	Cc1cc(NC(=O)N2CCC(n3c(=O)[nH]c4c(Br)cccc43)CC2)ccc1I [Example 50, 4-(4-Bromo-2-oxo-2,3-dihydro-1H-1,3-benzodiazol-1-yl)-N-(4-iodo-3-methylphenyl)piperidine-1-carboxamide]	18	47	15	3.2	35	14	17	29	20	48	27	40	19	EC50 [21]: 54 µM; EC50 [22]: 29 µM; EC50 [23]: 2.8 µM

SMILES	EC50 [6] [µM]	EC50 [8] [µM]	EC50 [9] [µM]	EC50 [10] [µM]	EC50 [15] [µM]	EC50 [17] [µM]	EC50 [18] [µM]	EC50 [1] [µM]	EC50 [2] [µM]	EC50 [3] [µM]	EC50 [4] [µM]	EC50 [5] [µM]	EC50 [7] [µM]	EC50 [11] [µM]	EC50 [12] [µM]	EC50 [13] [µM]	EC50 [14] [µM]	EC50 [16] [µM]	EC50 [19] [µM]	EC50 [20] [µM]	further results
O=C(Nc1ccc(I)cc1)N1CCC(n2c(=O)[nH]c3c(Br)cccc32)CC1 [Example 13, 4-(4-Bromo-2-oxo-2,3-dihydro-1H-1,3-benzodiazol-1-yl)-N-(4-iodophenyl)piperidine-1-carboxamide]	12	10	20	15	25	21	22	15	75	14	2.9	29	4.8	14	26	21	32	20	33	16	EC50 [21]: 43 µM; EC50 [22]: 18 µM; EC50 [23]: 2.3 µM
